Test systems include 786-0; A498; A549; COLO 205; EKVX; HCT-15; Hs-578T; IGROV-1; K562; KM12; MDA-MB-231; NCI-H522; OVCAR-4; OVCAR-8; RPMI-8226; SF-295; SK-MEL-28; SR; TK-10; UO-31.
Test in all cases: inhibition of tumour cell growth, NCI panel, 48 h

The structures appear in SMILES notation.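 Briefly, cells in 96-well plates were exposed to five compound concentrations for 48 h, and endpoints were estimated by linear interpolation. GI50 is the concentration that inhibits growth by half.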 The source made the active and inactive calls. Cut-off read from the data, not from the text of the source: active = GI50 up to about 1.1 µM and inactive = higher.

On to `COc1cc(Nc2n[nH]c(NS(=O)(=O)c3cc(C)c(Cl)cc3S)n2)cc(OC)c1OC`, for which the GI50 in the test on 786-0 is > 100 µM (inactive); in the test with A498, > 100 µM (inactive); in the test with A549, > 100 µM (inactive); in the test with COLO 205, > 100 µM (inactive); in the test with EKVX, > 100 µM (inactive); with HCT-15, more than 100 µM. For the same molecule, the GI50 in the test on Hs-578T, in the test with IGROV-1, in the test with K562, in the test on KM12, with MDA-MB-231 and in the test with NCI-H522 was > 100 µM (inactive) in each case. The GI50 in the test with OVCAR-4, in the test on OVCAR-8, with RPMI-8226, in the test with SF-295, in the test on SK-MEL-28 and in the test with SR was > 100 µM (inactive) each time. Further, the GI50 with TK-10 and in the test on UO-31 was > 100 µM (inactive) in each case.
Regarding `CC(C)(C)c1ccc(C(C)(C)C)c(N2C(=O)[C@@H]3[C@@H]4C=C[C@@H](C4)[C@]3(C)C2=O)c1`, the GI50 with 786-0 was 17.4 µM (inactive); with A498 it was 16.5 µM (inactive); in the test with A549, 41 µM (inactive); in the test on COLO 205, 42.2 µM (inactive); with EKVX, 47.3 µM (inactive); in the test on HCT-15 it was 18.6 µM. For the same molecule, the GI50 with Hs-578T is 24.2 µM (inactive); in the test on IGROV-1, 18.6 µM (inactive); in the test on K562, 26.8 µM (inactive); in the test on KM12 it was 36.6 µM (inactive); in the test with MDA-MB-231, 28.4 µM (inactive); in the test with NCI-H522, 16.1 µM (inactive). The GI50 is 13.6 µM (inactive) in the test on OVCAR-4; 14.6 µM (inactive) with OVCAR-8; 14.7 µM (inactive) in the test with RPMI-8226; 27.7 µM (inactive) with SF-295; 31.3 µM (inactive) with SK-MEL-28; 5.2 µM (inactive) with SR. Moreover, the GI50 with TK-10 was 35 µM (inactive); in the test on UO-31 it was 29.3 µM (inactive).
`O=C(OCc1ccccc1)N1CCCc2c(n(S(=O)(=O)c3ccccc3)c3ccccc23)C1`: the GI50 in the test with 786-0 was > 100 µM (inactive); in the test on A498, > 100 µM (inactive); in the test with A549, > 100 µM (inactive); in the test on COLO 205, > 100 µM (inactive); with EKVX, > 100 µM (inactive); in the test on HCT-15 it was more than 100 µM. Further, the GI50 in the test on Hs-578T was 78.7 µM (inactive); with IGROV-1, > 100 µM (inactive); with K562, > 100 µM (inactive); in the test on KM12 it was > 100 µM (inactive); in the test on MDA-MB-231 it was > 100 µM (inactive); with NCI-H522, 29.1 µM (inactive). For the same molecule, the GI50 with OVCAR-4 is > 100 µM (inactive); with OVCAR-8, > 100 µM (inactive); with RPMI-8226, > 100 µM (inactive); with SF-295, 36.6 µM (inactive); in the test with SK-MEL-28, > 100 µM (inactive); in the test on SR it was 49.1 µM (inactive). The GI50 in the test with TK-10 and in the test with UO-31 was > 100 µM (inactive) in each case.
For the molecule `NC1=Nc2cc(C(F)(F)F)ccc2Sc2nc3ccccc3n21`, the GI50 in the test with 786-0 was 11.6 µM (inactive); with A498 it was > 45.5 µM (inactive); in the test on A549, > 56 µM (inactive); with COLO 205, > 21.2 µM (inactive); with EKVX it was 13.8 µM (inactive); in the test on HCT-15 it was more than 100 µM. For the same molecule, the GI50 with Hs-578T is 42.1 µM (inactive); in the test with IGROV-1, > 25.7 µM (inactive); in the test with K562, 5.75 µM (inactive); with KM12, > 37 µM (inactive); in the test on MDA-MB-231 it was 38.1 µM (inactive); in the test with NCI-H522 it was 10.4 µM (inactive). Besides, the GI50 in the test with OVCAR-4 is 17.7 µM (inactive); with OVCAR-8, 12.5 µM (inactive); in the test with RPMI-8226 it was 6.25 µM (inactive); with SF-295, > 57.9 µM (inactive); in the test on SK-MEL-28 it was > 100 µM (inactive); with SR, 3.61 µM (inactive). Further, the results for the GI50 in the test with TK-10 and in the test on UO-31 were > 67 µM (inactive) and > 20.5 µM (inactive), respectively.
`Cc1cc(NN)nc2[nH]nc(N)c12`: the GI50 with 786-0 was > 100 µM (inactive); in the test with A498 it was > 100 µM (inactive); in the test with A549, > 100 µM (inactive); with COLO 205, > 100 µM (inactive); in the test on EKVX, > 100 µM (inactive); with HCT-15, more than 100 µM. Further, the GI50 was > 100 µM (inactive) with Hs-578T; > 100 µM (inactive) in the test on IGROV-1; > 100 µM (inactive) with K562; > 100 µM (inactive) in the test on KM12; 45.4 µM (inactive) in the test on MDA-MB-231; > 100 µM (inactive) with NCI-H522. Also, the GI50 in the test with OVCAR-4 is > 100 µM (inactive); in the test with OVCAR-8, > 100 µM (inactive); in the test with RPMI-8226, > 100 µM (inactive); in the test on SF-295, > 100 µM (inactive); in the test on SK-MEL-28 it was > 100 µM (inactive); in the test on SR, 69.5 µM (inactive). Moreover, the GI50 in the test with TK-10 and with UO-31 was > 100 µM (inactive) in each case.
As to `CCOC(=O)C1=NNC(C(=O)c2ccccc2)C1c1ccccc1` (stereo not given), the GI50 in the test with 786-0 is 2.11 µM (inactive); in the test on A498 it was 25.1 µM (inactive); in the test with A549, 19.1 µM (inactive); in the test with COLO 205 it was 2.05 µM (inactive); with EKVX, 8.95 µM (inactive); in the test with HCT-15, 2.15 µM. The GI50 was 4.12 µM (inactive) in the test with Hs-578T; 4.6 µM (inactive) in the test on IGROV-1; 1.47 µM (inactive) with K562; 6.87 µM (inactive) with KM12; 3.94 µM (inactive) with MDA-MB-231; 1.15 µM (inactive) in the test with NCI-H522. For the same molecule, the GI50 in the test on OVCAR-4 is 7.4 µM (inactive); with OVCAR-8, 5.51 µM (inactive); in the test with RPMI-8226, 3.85 µM (inactive); in the test with SF-295 it was 16.9 µM (inactive); in the test with SK-MEL-28 it was 1.91 µM (inactive); with SR, 1.81 µM (inactive). Also, the GI50 with TK-10 was 2.25 µM (inactive); in the test with UO-31, 2.01 µM (inactive).
As to `Cc1ccccc1C(=O)N/N=C/c1ccc(Sc2nccn2C)c([N+](=O)[O-])c1`, the GI50 in the test on 786-0 was > 100 µM (inactive); in the test on A498, > 100 µM (inactive); with A549, > 100 µM (inactive); in the test with COLO 205, 56 µM (inactive); in the test on EKVX, 64.9 µM (inactive); in the test on HCT-15 it was 66.8 µM. Moreover, the GI50 is 85.9 µM (inactive) in the test on Hs-578T; 35.6 µM (inactive) in the test with IGROV-1; 42.4 µM (inactive) with K562; 66.7 µM (inactive) in the test with KM12; 72.3 µM (inactive) in the test with MDA-MB-231; 61.9 µM (inactive) in the test with NCI-H522. The GI50 in the test on OVCAR-4 was 56.2 µM (inactive); in the test on OVCAR-8, 72.1 µM (inactive); in the test with RPMI-8226, 47.9 µM (inactive); in the test with SF-295, 58.5 µM (inactive); in the test with SK-MEL-28 it was > 100 µM (inactive); in the test with SR, 40 µM (inactive). The GI50 in the test on TK-10 and with UO-31 was > 100 µM (inactive) throughout.
In the case of `CC1CC[C@@]2(OC1)OC1C[C@H]3[C@@H]4CC[C@H]5CC(OC6OC(CO)C(OC7OC(CO)C(O)C(O)C7O)C(O)C6O)CCC5(C)[C@H]4CCC3(C)C1[C@@H]2C` (stereo not given in full), the GI50 was 8.26 µM (inactive) in the test with 786-0; 8.65 µM (inactive) in the test on A498; 9.35 µM (inactive) in the test with A549; 6.89 µM (inactive) in the test on COLO 205; 5.33 µM (inactive) with EKVX; 12.6 µM in the test on HCT-15. The GI50 was 8.57 µM (inactive) in the test with Hs-578T; 2.52 µM (inactive) in the test with IGROV-1; 12.5 µM (inactive) with K562; 8.18 µM (inactive) in the test on KM12; 9.1 µM (inactive) with MDA-MB-231; 6.19 µM (inactive) in the test on NCI-H522. In addition, the GI50 with OVCAR-4 was 8.81 µM (inactive); with OVCAR-8, 8.45 µM (inactive); with RPMI-8226 it was 13.7 µM (inactive); in the test with SF-295 it was 8.55 µM (inactive); with SK-MEL-28 it was 9.2 µM (inactive); in the test on SR, 9.59 µM (inactive). Besides, the GI50 with TK-10 is 9.64 µM (inactive); in the test with UO-31, 11.1 µM (inactive).
Consider `O=C(O)CSc1nnc(CCCCCCCCc2nnc(SCC(=O)O)o2)o1`, for which the GI50 in the test on 786-0 was > 100 µM (inactive); with A498, > 100 µM (inactive); with A549, > 100 µM (inactive); in the test with COLO 205, > 100 µM (inactive); in the test on EKVX it was > 100 µM (inactive); with HCT-15, more than 100 µM. Also, the GI50 was 82.2 µM (inactive) with Hs-578T; > 100 µM (inactive) with IGROV-1; > 100 µM (inactive) in the test with K562; > 100 µM (inactive) in the test on KM12; > 100 µM (inactive) in the test with MDA-MB-231; > 100 µM (inactive) in the test on NCI-H522. Besides, the GI50 with OVCAR-4 is > 100 µM (inactive); in the test on OVCAR-8, 55.5 µM (inactive); with RPMI-8226, > 100 µM (inactive); in the test on SF-295, > 100 µM (inactive); in the test with SK-MEL-28, > 100 µM (inactive); in the test on SR, > 100 µM (inactive). The GI50 in the test on TK-10 and with UO-31 was > 100 µM (inactive) throughout.
Turning to `O=C1c2ccccc2C2CNC1(O)c1ccccc12` (stereo not given), the GI50 in the test with 786-0 was > 100 µM (inactive); in the test on A498, > 100 µM (inactive); in the test with A549, > 100 µM (inactive); in the test on COLO 205 it was > 100 µM (inactive); in the test on EKVX it was > 100 µM (inactive); with HCT-15 it was more than 100 µM. Moreover, the GI50 in the test with Hs-578T, in the test on IGROV-1, in the test on K562, in the test on KM12, in the test with MDA-MB-231 and with NCI-H522 was > 100 µM (inactive) each time. The GI50 in the test with OVCAR-4, in the test with OVCAR-8, with RPMI-8226, in the test with SF-295, with SK-MEL-28 and with SR was > 100 µM (inactive) each time. Besides, the GI50 with TK-10 and in the test on UO-31 was > 100 µM (inactive) throughout.
